The subject of assay [1] is GPR3. As to conditions: cited from earlier work.
The next assay deals with HEK parental cell line. The assay can be described thus: cAMP accumulation in HEK parental cell line. To be noted: up to 10 μM.
The next assay concerns the target hGPR3 (Homo sapiens, UniProt P46089). The assay can be described thus: cAMP accumulation through hGPR3 stably expressed in HEK293 cells. It counts as cell-based. To be noted: tested up to 100 μM.
Assay [2] relates to GPR3. As to conditions: β-arrestin PathHunter assay; cited from earlier work.

Chain of hGPR3 (P46089 whole entry): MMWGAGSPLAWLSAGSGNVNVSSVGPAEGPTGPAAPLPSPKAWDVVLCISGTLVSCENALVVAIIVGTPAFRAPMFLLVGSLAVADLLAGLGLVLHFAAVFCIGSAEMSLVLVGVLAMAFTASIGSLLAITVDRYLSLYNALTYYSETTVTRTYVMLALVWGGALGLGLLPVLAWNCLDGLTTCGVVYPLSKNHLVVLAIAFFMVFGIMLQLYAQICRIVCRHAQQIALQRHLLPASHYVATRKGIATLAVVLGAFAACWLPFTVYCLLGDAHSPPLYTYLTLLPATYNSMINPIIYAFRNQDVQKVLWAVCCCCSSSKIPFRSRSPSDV

Consider `[Cl-].c1ccc2c(c1)[I+]c1ccccc1-2` [Compound 1, diphenyleneiodonium (DPI) chloride], for which the “reported EC50 for cAMP accumulation” value in the assay on GPR3 [1] (GPR3 activation) was “low micromolar range”. The “increase of cAMP” value in the assay on HEK parental cell line is on record as “Neither compound increased cAMP”; with HEK parental cell line (listed as DPI), “but not GPR6, GPR12, or in HEK293 cells alone”.

Regarding `c1ccc2c(c1)Cc1ccccc1[I+]2` [Compound 23, 10H-Dibenz[b,e]iodinium], at hGPR3, the “GPR3 agonist activity in words” value was “inactive”. Still for that read-out and setting: under `Fc1cccc2c1-c1ccccc1[I+]2` [Compound 34] stands “inactive”; under `FC1(F)Oc2cc3c(cc2O1)-c1ccccc1[I+]3` [Compound 38], “inactive”. With `CCCCCCCCCCCCC/C=C/[C@@H](O)[C@@H](N)COP(=O)(O)O` [Compound S1P, sphingosine 1-phosphate], the “activation of cAMP accumulation” value with GPR3 [1] (CHO or HEK cells, ref 4a, 19) is on record as “does not activate”. Further, the “activation of GPR3 mediated internalization” value in the assay with GPR3 [2] was “does not activate”.

These data come from article PMC10631289 (Bioorganic & medicinal chemistry letters, 2023).
